How the values were obtained:
TRPC5 = target: T1, TRPC5 (Homo sapiens, UniProt Q9UL62); test: HEK293 whole-cell patch clamp recording, TRPC5 inhibition assay; format: cell-based; settings: for IC50: dose response, whole cell patch clamp, HEK cells expressing TRPC5, Rilu (3 μM)
T1 construct: expressed in transfected cells; host or cells: HEK293
T1 sequence (Q9UL62 1-973): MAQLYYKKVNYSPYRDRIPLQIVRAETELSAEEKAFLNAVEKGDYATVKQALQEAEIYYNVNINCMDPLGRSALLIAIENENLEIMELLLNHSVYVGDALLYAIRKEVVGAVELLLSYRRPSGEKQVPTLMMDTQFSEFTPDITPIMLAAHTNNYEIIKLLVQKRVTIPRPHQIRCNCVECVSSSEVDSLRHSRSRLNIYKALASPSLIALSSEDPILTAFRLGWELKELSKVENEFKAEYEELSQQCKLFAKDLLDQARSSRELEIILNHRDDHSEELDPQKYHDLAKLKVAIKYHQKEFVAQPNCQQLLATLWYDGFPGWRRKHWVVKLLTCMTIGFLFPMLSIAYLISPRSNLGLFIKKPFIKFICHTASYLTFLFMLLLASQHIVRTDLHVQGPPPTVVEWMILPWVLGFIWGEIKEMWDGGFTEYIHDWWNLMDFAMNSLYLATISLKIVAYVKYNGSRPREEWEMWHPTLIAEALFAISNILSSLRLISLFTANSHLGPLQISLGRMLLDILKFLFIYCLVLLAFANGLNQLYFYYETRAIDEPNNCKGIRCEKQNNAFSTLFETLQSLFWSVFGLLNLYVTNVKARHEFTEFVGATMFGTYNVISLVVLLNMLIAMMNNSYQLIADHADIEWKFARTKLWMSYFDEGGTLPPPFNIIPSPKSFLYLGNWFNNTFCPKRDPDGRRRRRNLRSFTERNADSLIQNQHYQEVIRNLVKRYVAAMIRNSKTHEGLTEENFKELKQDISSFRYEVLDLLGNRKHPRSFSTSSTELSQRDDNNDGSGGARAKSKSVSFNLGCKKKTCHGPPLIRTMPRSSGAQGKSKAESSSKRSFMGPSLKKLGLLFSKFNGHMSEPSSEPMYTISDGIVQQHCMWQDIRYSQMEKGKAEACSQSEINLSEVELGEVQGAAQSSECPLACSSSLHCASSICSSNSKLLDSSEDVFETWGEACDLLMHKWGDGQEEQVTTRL
Procedure: TRPC4, TRPC5, and TRPC6 inhibition assay: HEK293 whole-cell recordings Whole-cell patch clamp recording was performed 16 h after transfection. The bath solution contained (in mM): 140 NaCl, 5 KCl, 10 HEPES, 2 MgCl2, 2 CaCl2, 10 glucose with pH7.4 adjusted with NaOH. The intracellular solution contained (in mM): 140 KCl, 5 EGTA, 10 HEPES, 2 MgCl2 with pH7.4 adjusted with KOH. The patch pipettes were made using a two-step-protocol (P-97, Sutter Instrument). The pipette resistance was maintained between 4 to 8 MΩ. Once the whole-cell configuration was achieved, cells were clamped at a holding potential of −60 mV, and given a 50 ms ramp stimulation from −100 mV to +100 mV in every 5 s. All currents were filtered at 2 KHz (Axopatch 200B amplifier, Axon Instruments, Union City, Calif.) and digitized at 10 KHz for whole-cell recordings using Axon pCLAMP 10.4. Data were then analyzed using Clampfit 10.4 (Molecular Devices).
HEK293 cell culture and transfection: Transfection of HEK293 cells was carried out using Plus reagent (Invitrogen) and Lipofectamine (Invitrogen) according to standard protocols. For heterologous expression of TRP channels in HEK293 cells, 1 μg of TRPC5-GFP, TRPC6-GFP or TRPC4-GFP plasmids were used to transfect HEK293 cells in a 3.5 cm petri dish where cells were allowed to grow to 80% confluence. Electrophysiology was carried out after 16 h incubation.

caAT1R podocytes = test: ROS assay in caAT1R expressing podocytes; format: cell-based, mouse; settings: 30 μM ML204, 30 μM AC1903 or 50 μM NSC23677 for 36 hours
Procedure: Podocyte culture and viral transduction: Immortalized mouse podocytes were cultured as previously described (10, 11). Podocyte viral transduction was performed using lentivirus as previously described (10, 11). Briefly, lentivirus production was carried out in HEK293T cells at 60% confluence, and viral particles were collected two days after transfection and purified by centrifugation at 1,000 rcf for 5 min. Purified lentivirus was frozen at −80° C. until further use. Podocytes were transduced with lentivirus after 7 days of differentiation, and assays were performed 5 days after viral transduction.
For experiments in FIG. 4B/C, pCDNA3.1 AT1AR-Δ324 (rat AT1R NM_030985.4) containing HA tag (Plasmid #45635, Addgene) underwent site directed mutagenesis (Agilent) to generate the N111S substitution. For FIG. 4B, differentiated podocytes were transduced with the AT1A-N111S/Δ324 construct in six-well plates. Six days after viral transduction, cells were treated with either vehicle, 30 μM ML204, 30 μM AC1903 or 50 μM NSC23677 for 36 hours. Intracellular production of ROS was measured using a cell-permeable fluorescent dye, 5-(and-6)-chloromethyl-2′,7′-dichlorodihydrofluorescein diacetate, acetyl ester (CM-H2DCFDA, Molecular Probes). Cells were incubated with 5 μM CM-H2DCFDA at 37° C. for 45 min in Hanks' balanced salt solution (HBSS). Cells were then collected, resuspended in HBSS, stained with propidium iodide and the fluorescence intensity was assessed by flow cytometry using MACSQuant Analyzer (Miltenyi Biotec, Bergisch Gladbach, Germany). Living cells, which were PI negative, were selected by FACS gating and the fluorescence of CM-H2DCFDA was recorded on the FL-1 channel (525 nm). For FIG. 4C, differentiated podocytes were transduced with the AT1A-N111S/Δ324 construct in 96 well plates. Six days after transduction, the cells were treated with either vehicle, 30 μM ML204, 30 μM AC1903 or 50 μM NSC23677 for 36 hours. […]

| Structure (SMILES) | block of riluzole-activated TRPC5 whole-cell current (TRPC5; 30 μM, HEK cells expressing TRPC5) | IC50 (TRPC5) [µM] | caAT1R-induced ROS generation (caAT1R podocytes) |
| --- | --- | --- | --- |
| c1ccc(Cn2c(NCc3ccco3)nc3ccccc32)cc1 [AC1903] | blocked | 14.7 | blocked caAT1R-induced ROS generation |
| Cc1cc(N2CCCCC2)nc2ccccc12 [ML204, reference compound] | – | 13.6 | blocked caAT1R-induced ROS generation |
